Measured values as given in ChEMBL document CHEMBL3739415, “Synthesis of functionalized new conjugates of batracylin with tuftsin/retro-tuftsin derivatives and their biological evaluation” (Eur J Med Chem, 2015).
Calls of active or inactive are those of the source. No cut-off for these calls is given here. Non-standard residues stand in square brackets, D forms with d. Residues, ends and D or L forms follow the SMILES beside them. *: point of attachment. Batracylin(8-NH) = O=C1c2ccccc2C2=Nc3ccc(N*)cc3CN12; Arg(NO2) = N=C(NCCC[C@H](N)C(=O)O)N[N+](=O)[O-]

Experiments:
[1] = Cytotoxicity against human HL60 cells after 120 hrs by MTT assay; assay type: functional, cell-based; settings: HL-60, 120 h
A549 [2] = assay: Cytotoxicity against human A549 cells after 120 hrs by MTT assay; assay type: functional, cell-based; settings: A549, 120 h
[3] = biological target: DNA topoisomerase 2-alpha (Homo sapiens) (UniProt P11388); assay: Inhibition of human topoisomerase-2alpha-mediated relaxation of supercoiled plasmid pBR322 DNA after 30 mins by ethidium bromide staining
DNA topoisomerase 2-alpha (Homo sapiens), sequence (P11388 whole entry): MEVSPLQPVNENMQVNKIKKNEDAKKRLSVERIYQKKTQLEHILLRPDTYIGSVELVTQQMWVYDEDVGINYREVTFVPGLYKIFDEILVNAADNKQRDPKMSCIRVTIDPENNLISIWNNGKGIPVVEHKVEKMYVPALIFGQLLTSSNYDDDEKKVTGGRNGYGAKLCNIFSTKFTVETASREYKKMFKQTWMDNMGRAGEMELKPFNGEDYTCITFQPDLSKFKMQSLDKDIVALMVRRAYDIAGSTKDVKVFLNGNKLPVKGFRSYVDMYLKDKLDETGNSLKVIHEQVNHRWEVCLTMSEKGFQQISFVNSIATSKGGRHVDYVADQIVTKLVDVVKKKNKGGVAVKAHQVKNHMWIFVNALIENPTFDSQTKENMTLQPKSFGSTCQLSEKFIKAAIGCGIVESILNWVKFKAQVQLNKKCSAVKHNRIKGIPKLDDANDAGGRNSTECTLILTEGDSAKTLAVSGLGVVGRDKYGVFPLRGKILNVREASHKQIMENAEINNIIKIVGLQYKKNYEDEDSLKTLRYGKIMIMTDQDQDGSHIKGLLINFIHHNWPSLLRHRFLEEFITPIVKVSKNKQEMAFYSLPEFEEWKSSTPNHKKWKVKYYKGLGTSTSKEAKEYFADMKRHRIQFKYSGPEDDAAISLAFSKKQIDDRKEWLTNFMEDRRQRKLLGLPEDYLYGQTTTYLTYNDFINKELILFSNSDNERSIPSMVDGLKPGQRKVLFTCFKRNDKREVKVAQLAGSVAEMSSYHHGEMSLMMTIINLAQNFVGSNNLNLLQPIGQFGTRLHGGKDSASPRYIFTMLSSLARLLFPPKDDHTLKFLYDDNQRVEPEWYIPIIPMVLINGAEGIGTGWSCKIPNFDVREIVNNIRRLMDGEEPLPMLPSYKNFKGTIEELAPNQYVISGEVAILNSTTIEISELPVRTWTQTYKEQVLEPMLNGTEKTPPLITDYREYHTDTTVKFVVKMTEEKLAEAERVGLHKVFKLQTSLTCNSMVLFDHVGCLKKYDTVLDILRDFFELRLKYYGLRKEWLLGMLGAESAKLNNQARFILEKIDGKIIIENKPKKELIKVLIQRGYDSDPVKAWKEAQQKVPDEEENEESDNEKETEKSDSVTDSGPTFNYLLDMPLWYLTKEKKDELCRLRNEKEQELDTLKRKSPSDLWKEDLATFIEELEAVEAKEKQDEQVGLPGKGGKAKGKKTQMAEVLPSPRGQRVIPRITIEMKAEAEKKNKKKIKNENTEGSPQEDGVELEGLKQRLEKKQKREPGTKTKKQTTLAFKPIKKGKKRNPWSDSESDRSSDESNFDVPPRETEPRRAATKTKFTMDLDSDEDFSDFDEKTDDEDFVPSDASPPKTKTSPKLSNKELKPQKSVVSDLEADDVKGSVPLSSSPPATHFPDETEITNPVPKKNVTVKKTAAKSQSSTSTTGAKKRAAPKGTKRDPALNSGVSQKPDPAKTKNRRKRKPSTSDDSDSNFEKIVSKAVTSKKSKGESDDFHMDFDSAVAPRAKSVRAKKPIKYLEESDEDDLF

[4] = biological target: T1, DNA topoisomerase 1 (Homo sapiens) (UniProt P11387); assay: Inhibition of human topoisomerase-1-mediated relaxation of supercoiled plasmid pBR322 DNA at 1 to 100 uM after 30 mins by ethidium bromide staining
T1 sequence (whole entry): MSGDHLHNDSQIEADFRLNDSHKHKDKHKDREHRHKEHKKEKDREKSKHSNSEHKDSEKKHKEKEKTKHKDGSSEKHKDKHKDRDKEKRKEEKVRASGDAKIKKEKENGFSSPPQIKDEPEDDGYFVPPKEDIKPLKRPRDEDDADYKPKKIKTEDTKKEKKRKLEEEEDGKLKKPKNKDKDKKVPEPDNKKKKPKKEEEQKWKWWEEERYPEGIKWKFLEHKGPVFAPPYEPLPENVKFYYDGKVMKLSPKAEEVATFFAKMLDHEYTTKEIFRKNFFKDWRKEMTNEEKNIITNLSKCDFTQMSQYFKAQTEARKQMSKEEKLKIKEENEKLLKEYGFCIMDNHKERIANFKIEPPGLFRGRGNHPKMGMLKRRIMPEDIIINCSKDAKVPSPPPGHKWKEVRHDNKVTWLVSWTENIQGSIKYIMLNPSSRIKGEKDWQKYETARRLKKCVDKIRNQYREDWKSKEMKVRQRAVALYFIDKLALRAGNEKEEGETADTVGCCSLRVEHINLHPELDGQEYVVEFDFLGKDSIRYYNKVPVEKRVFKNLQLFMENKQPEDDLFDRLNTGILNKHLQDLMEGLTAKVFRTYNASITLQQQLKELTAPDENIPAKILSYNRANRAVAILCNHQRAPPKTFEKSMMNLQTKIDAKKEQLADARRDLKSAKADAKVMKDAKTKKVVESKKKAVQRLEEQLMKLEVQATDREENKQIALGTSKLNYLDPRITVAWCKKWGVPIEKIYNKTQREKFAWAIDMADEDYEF

HL-60 [5] = assay: Induction of apoptosis in human HL60 cells assessed as increase of debris fraction at IC90 up to 120 hrs using Hoechst-33342 staining by fluorescent microscope analysis relative to BAT; assay type: functional, cell-based
A549 [6] = assay: Cell cycle arrest in human A549 cells assessed as accumulation at G2/M phase at IC90 after 120 hrs using propidium iodide staining by flow cytometry analysis; assay type: functional, cell-based
[7] = Cell cycle arrest in human HL60 cells assessed as abnormal mitotic figures at IC90 after 24 to 120 hrs using propidium iodide staining by flow cytometry analysis; assay type: functional, cell-based; settings: HL-60
[8] = Cell cycle arrest in human HL60 cells assessed as accumulation at G2/M phase at IC90 after 24 to 120 hrs using propidium iodide staining by flow cytometry analysis; assay type: functional, cell-based; settings: HL-60
HL-60 [9] = assay: Induction of apoptosis in human HL60 cells assessed as micronucleated cells at IC90 up to 120 hrs using Hoechst-33342 staining by fluorescent microscope analysis relative to BAT; assay type: functional, cell-based
A549 [10] = assay: Cell cycle arrest in human A549 cells assessed as accumulation at G2/M phase at IC90 after 24 hrs using propidium iodide staining by flow cytometry analysis; assay type: functional, cell-based
A549 [11] = assay: Induction of DNA damage in human A549 cells assessed as phosphorylation of H2AX histone at IC90 after 3 hrs by fluorescence microscopy; assay type: functional, cell-based
A549 [12] = assay: Induction of apoptosis in human A549 cells assessed as change in nuclear and cellular morphology at IC90 up to 120 hrs using Hoechst-33342 staining by fluorescent microscope analysis; assay type: functional, cell-based
A549 [13] = assay: Induction of apoptosis in human A549 cells assessed as increase of debris fraction at IC90 up to 120 hrs using Hoechst-33342 staining by fluorescent microscope analysis relative to BAT; assay type: functional
HL-60 [14] = assay: Induction of apoptosis in human HL60 cells assessed as fraction of polyploid cells at IC90 up to 120 hrs using Hoechst-33342 staining by fluorescent microscope analysis relative to BAT; assay type: functional, cell-based
A549 [15] = assay: Ratio of BAT IC50 to compound IC50 for human A549 cells after 120 hrs by MTT assay; assay type: functional
HL-60 [16] = assay: Ratio of BAT IC50 to compound IC50 for human HL60 cells after 120 hrs by MTT assay; assay type: functional
[17] = Cytotoxicity against mouse NIH/3T3 cells after 120 hrs by MTT assay; assay type: functional, cell-based; settings: NIH3T3, 120 h
HT-29 = assay: Cytotoxicity against human HT-29 cells after 120 hrs by MTT assay; assay type: functional, cell-based; settings: HT-29, 120 h
L1210 = assay: Cytotoxicity against mouse L1210 cells after 120 hrs by MTT assay; assay type: functional, cell-based; settings: L1210, 120 h
LNCaP = assay: Cytotoxicity against human LNCAP cells after 120 hrs by MTT assay; assay type: functional, cell-based
[18] = Cytotoxicity against human HCT116 cells after 120 hrs by MTT assay; assay type: functional, cell-based; settings: HCT-116, 120 h
[19] = Cytotoxicity against mouse WEHI1640 cells after 120 hrs by MTT assay; assay type: functional, cell-based; settings: WEHI1640, 120 h
P388 = assay: Cytotoxicity against mouse P388 cells after 120 hrs by MTT assay; assay type: functional, cell-based; settings: P388, 120 h
MCF7 = assay: Cytotoxicity against human MCF7 cells after 120 hrs by MTT assay; assay type: functional, cell-based; settings: MCF7, 120 h

## C[C@H](N)C(=O)NCCCC[C@H](NC(=O)[C@@H](N)[C@@H](C)O)C(=O)N1CCC[C@H]1C(=O)N[C@@H](CCCNC(=N)N[N+](=O)[O-])C(=O)Nc1ccc2c(c1)CN1C(=O)c3ccccc3C1=N2 (H-TK(Ala)P[Arg(NO2)]-{Batracylin(8-NH)})
[1]
  IC50: 19.6 µM
A549 [2]
  IC50: 5.9 µM

## C[C@@H](O)[C@H](N)C(=O)N[C@@H](CCCCNC(=O)CN)C(=O)N1CCC[C@H]1C(=O)N[C@@H](CCCNC(=N)N[N+](=O)[O-])C(=O)Nc1ccc2c(c1)CN1C(=O)c3ccccc3C1=N2 (H-TK(Gly)P[Arg(NO2)]-{Batracylin(8-NH)})
[1]
  IC50: > 100 µM
A549 [2]
  IC50: > 100 µM

## CC[C@H](C)[C@H](N)C(=O)NCCCC[C@H](NC(=O)[C@@H](N)[C@@H](C)O)C(=O)N1CCC[C@H]1C(=O)N[C@@H](CCCNC(=N)N[N+](=O)[O-])C(=O)Nc1ccc2c(c1)CN1C(=O)c3ccccc3C1=N2 (H-TK(Ile)P[Arg(NO2)]-{Batracylin(8-NH)})
[3]
  inhibition: Dose-dependent effect
[1]
  IC50: 15.4 µM
[4]
  inhibition: inactive
A549 [2]
  IC50: 17.4 µM

## CC(C)C[C@H](N)C(=O)NCCCC[C@H](NC(=O)[C@@H](N)[C@@H](C)O)C(=O)N1CCC[C@H]1C(=O)N[C@@H](CCCNC(=N)N[N+](=O)[O-])C(=O)Nc1ccc2c(c1)CN1C(=O)c3ccccc3C1=N2 (H-TK(Leu)P[Arg(NO2)]-{Batracylin(8-NH)})
[3]
  inhibition: Dose-dependent effect
[1]
  IC50: 83.7 µM
[4]
  inhibition: inactive
A549 [2]
  IC50: > 100 µM

## CC(C)[C@H](N)C(=O)NCCCC[C@H](NC(=O)[C@@H](N)[C@@H](C)O)C(=O)N1CCC[C@H]1C(=O)N[C@@H](CCCNC(=N)N[N+](=O)[O-])C(=O)Nc1ccc2c(c1)CN1C(=O)c3ccccc3C1=N2 (H-TK(Val)P[Arg(NO2)]-{Batracylin(8-NH)})
[1]
  IC50: > 100 µM
A549 [2]
  IC50: > 100 µM

## C[C@@H](O)[C@H](N)C(=O)N[C@@H](CCCCN)C(=O)N1CCC[C@H]1C(=O)N[C@@H](CCCNC(=N)N[N+](=O)[O-])C(=O)Nc1ccc2c(c1)CN1C(=O)c3ccccc3C1=N2 (H-TKP[Arg(NO2)]-{Batracylin(8-NH)})
HL-60 [5]
  Activity: Active
[1]
  IC50: 77.3 µM
A549 [6]
  Activity: Active
[7]
  Activity: Active
[8]
  Activity: inactive
HL-60 [9]
  Activity: Active
A549 [10]
  Activity: Active
A549 [11]
  Activity: Active
A549 [12]
  Activity: inactive
A549 [13]
  fold change (FC): 3.5
HL-60 [14]
  Activity: Active
A549 [2]
  IC50: 52.8 µM

## C[C@H](N)C(=O)NCCCC[C@H](NC(=O)[C@@H]1CCCN1C(=O)[C@@H](N)CCCNC(=N)N[N+](=O)[O-])C(=O)N[C@H](C(=O)Nc1ccc2c(c1)CN1C(=O)c3ccccc3C1=N2)[C@@H](C)O (H-[Arg(NO2)]PK(Ala)T-{Batracylin(8-NH)})
[1]
  IC50: 11.1 µM
A549 [2]
  IC50: 5.6 µM

## C[C@@H](O)[C@H](NC(=O)[C@H](CCCCNC(=O)CN)NC(=O)[C@@H]1CCCN1C(=O)[C@@H](N)CCCNC(=N)N[N+](=O)[O-])C(=O)Nc1ccc2c(c1)CN1C(=O)c3ccccc3C1=N2 (H-[Arg(NO2)]PK(Gly)T-{Batracylin(8-NH)})
[1]
  IC50: 28.7 µM
A549 [2]
  IC50: > 100 µM

## CC[C@H](C)[C@H](N)C(=O)NCCCC[C@H](NC(=O)[C@@H]1CCCN1C(=O)[C@@H](N)CCCNC(=N)N[N+](=O)[O-])C(=O)N[C@H](C(=O)Nc1ccc2c(c1)CN1C(=O)c3ccccc3C1=N2)[C@@H](C)O (H-[Arg(NO2)]PK(Ile)T-{Batracylin(8-NH)})
[3]
  inhibition: Dose-dependent effect
[1]
  IC50: 4.7 µM
[4]
  inhibition: inactive
A549 [15]
  Ratio IC50: >=10
HL-60 [16]
  Ratio IC50: >=10
A549 [2]
  IC50: 4.8 µM

## CC(C)C[C@H](N)C(=O)NCCCC[C@H](NC(=O)[C@@H]1CCCN1C(=O)[C@@H](N)CCCNC(=N)N[N+](=O)[O-])C(=O)N[C@H](C(=O)Nc1ccc2c(c1)CN1C(=O)c3ccccc3C1=N2)[C@@H](C)O (H-[Arg(NO2)]PK(Leu)T-{Batracylin(8-NH)})
HL-60 [5]
  Activity: Active
[3]
  inhibition: Dose-dependent effect
[1]
  IC50: 5.3 µM
A549 [6]
  Activity: Active
[7]
  Activity: Active
[8]
  Activity: inactive
[4]
  inhibition: inactive
HL-60 [9]
  Activity: Active
A549 [10]
  Activity: Active
A549 [11]
  Activity: Active
A549 [12]
  Activity: inactive
A549 [15]
  Ratio IC50: >=10
HL-60 [14]
  Activity: Active
HL-60 [16]
  Ratio IC50: >=10
A549 [2]
  IC50: 4 µM

## CC(C)[C@H](N)C(=O)NCCCC[C@H](NC(=O)[C@@H]1CCCN1C(=O)[C@@H](N)CCCNC(=N)N[N+](=O)[O-])C(=O)N[C@H](C(=O)Nc1ccc2c(c1)CN1C(=O)c3ccccc3C1=N2)[C@@H](C)O (H-[Arg(NO2)]PK(Val)T-{Batracylin(8-NH)})
[1]
  IC50: 11 µM
A549 [2]
  IC50: 13.1 µM

## C[C@@H](O)[C@H](NC(=O)[C@H](CCCCN)NC(=O)[C@@H]1CCCN1C(=O)[C@@H](N)CCCNC(=N)N[N+](=O)[O-])C(=O)Nc1ccc2c(c1)CN1C(=O)c3ccccc3C1=N2 (H-[Arg(NO2)]PKT-{Batracylin(8-NH)})
[1]
  IC50: 30.8 µM
A549 [15]
  Ratio IC50: 5
HL-60 [16]
  Ratio IC50: 2
A549 [2]
  IC50: 8.7 µM

## Nc1ccc2c(c1)CN1C(=O)c3ccccc3C1=N2 [DANIQUIDONE]
[17]
  IC50: 69.9 µM
HT-29
  IC50: 64.3 µM
HL-60 [5]
  Activity: Active
[3]
  inhibition: Dose-dependent effect
[1]
  IC50: 66.6 µM
L1210
  IC50: > 100 µM
A549 [6]
  Activity: Active
LNCaP
  IC50: 90.2 µM
[18]
  IC50: 88.7 µM
[7]
  Activity: Active
[8]
  Activity: inactive
[4]
  inhibition: inactive
HL-60 [9]
  Activity: Active
A549 [10]
  Activity: Active
A549 [11]
  Activity: Active
[19]
  IC50: 58.4 µM
A549 [12]
  Activity: inactive
P388
  IC50: > 100 µM
HL-60 [14]
  Activity: Active
MCF7
  IC50: > 100 µM
A549 [2]
  IC50: 46.3 µM
